Measured values: patent US20060088820A1 (priority 1999, published 2006)

Experiments:
[1] = system: blood mononucleated cells from healthy donor inoculated with MS virion fraction; assay type: cell-based, human
[2] = system: blood mononucleated cells from healthy donor

## Cc1cn([C@H]2C[C@H](N=[N+]=[N-])[C@@H](CO)O2)c(=O)[nH]c1=O [AZT, azidodeoxythymidine]
[1]
  Vβ16 expansion of the lymphocytes (FACS analysis of T subpopulations): an absence or an inhibition of Vβ16 expansion
[2]
  cell mortality (toxicity tests, compound alone): no significant cell mortality

## O=c1[nH]cnc2c1ncn2[C@H]1CC[C@@H](CO)O1 [DDI, dideoxyinosine]
[1]
  Vβ16 expansion of the lymphocytes (FACS analysis of T subpopulations): an absence of Vβ16 expansion
